Test results from ChEMBL document CHEMBL3734705, “Synthesis and in vitro cytotoxicity of novel C-12 substituted-14-deoxy-andrographolide derivatives as potent anti-cancer agents” (2015).

Columns and labels:
KM12 = test: Cytotoxicity against human KM12 cells assessed as growth inhibition at 10 uM after 48 hrs by SRB assay; format: functional; conditions: KM12, 48 h, read-out: GI
[1] = Cytotoxicity against human OVCAR3 cells assessed as growth level at 10 uM after 48 hrs by SRB assay; format: functional, OVCAR-3
[2] = Cytotoxicity against human SKOV3 cells assessed as growth level at 10 uM after 48 hrs by SRB assay; format: functional, SK-OV-3
MCF7 [3] = test: Cytotoxicity against human MCF7 cells assessed as growth inhibition at 10 uM after 48 hrs by SRB assay; format: functional; conditions: MCF7, 48 h, read-out: GI
[4] = Cytotoxicity against human RPMI8226 cells assessed as growth level at 10 uM after 48 hrs by SRB assay; format: functional, RPMI-8226
[5] = Cytotoxicity against human OVCAR5 cells assessed as growth level at 10 uM after 48 hrs by SRB assay; format: functional, OVCAR-5
[6] = Cytotoxicity against human TK10 cells assessed as growth inhibition at 10 uM after 48 hrs by SRB assay; format: functional; conditions: TK-10, 48 h, read-out: GI
786-0 = test: Cytotoxicity against human 786-0 cells assessed as growth inhibition at 10 uM after 48 hrs by SRB assay; format: functional; conditions: 786-0, 48 h, read-out: GI
[7] = Cytotoxicity against human HCT15 cells assessed as growth level at 10 uM after 48 hrs by SRB assay; format: functional, HCT-15
[8] = Cytotoxicity against human HCT116 cells assessed as growth inhibition at 10 uM after 48 hrs by SRB assay; format: functional; conditions: HCT-116, 48 h, read-out: GI
[9] = Cytotoxicity against human UACC257 cells assessed as growth level at 10 uM after 48 hrs by SRB assay; format: functional, UACC-257
[10] = Cytotoxicity against human UACC62 cells assessed as growth inhibition at 10 uM after 48 hrs by SRB assay; format: functional; conditions: UACC-62, 48 h, read-out: GI
[11] = Cytotoxicity against human SF539 cells assessed as growth level at 10 uM after 48 hrs by SRB assay; format: functional, SF-539
[12] = Cytotoxicity against human IGROV1 cells assessed as growth level at 10 uM after 48 hrs by SRB assay; format: functional, IGROV-1
K562 [13] = test: Cytotoxicity against human K562 cells assessed as growth level at 10 uM after 48 hrs by SRB assay; format: functional
NCI-H460 = test: Cytotoxicity against human NCI-H460 cells assessed as growth level at 10 uM after 48 hrs by SRB assay; format: functional
M14 = test: Cytotoxicity against human M14 cells assessed as growth inhibition at 10 uM after 48 hrs by SRB assay; format: functional; conditions: M14, 48 h, read-out: GI
NCI-H522 [14] = test: Cytotoxicity against human NCI-H522 cells assessed as growth level at 10 uM after 48 hrs by SRB assay; format: functional
[15] = Cytotoxicity against human LOXIMVI cells assessed as growth inhibition at 10 uM after 48 hrs by SRB assay; format: functional; conditions: LOX IMVI, read-out: GI
[16] = Cytotoxicity against human BT549 cells assessed as growth inhibition at 10 uM after 48 hrs by SRB assay; format: functional; conditions: BT-549, 48 h, read-out: GI
[17] = Cytotoxicity against human IGROV1 cells assessed as growth inhibition at 10 uM after 48 hrs by SRB assay; format: functional; conditions: IGROV-1, 48 h, read-out: GI
NCI-H226 = test: Cytotoxicity against human NCI-H226 cells assessed as growth inhibition at 10 uM after 48 hrs by SRB assay; format: functional; conditions: NCI-H226, 48 h, read-out: GI
[18] = Cytotoxicity against human OVCAR5 cells assessed as growth inhibition at 10 uM after 48 hrs by SRB assay; format: functional; conditions: OVCAR-5, 48 h, read-out: GI
[19] = Cytotoxicity against human RXF393 cells assessed as growth level at 10 uM after 48 hrs by SRB assay; format: functional, RXF 393
[20] = Cytotoxicity against human SF268 cells assessed as growth level at 10 uM after 48 hrs by SRB assay; format: functional, SF-268
[21] = Cytotoxicity against human TK10 cells assessed as growth level at 10 uM after 48 hrs by SRB assay; format: functional, TK-10
NCI-H522 [22] = test: Cytotoxicity against human NCI-H522 cells assessed as growth inhibition at 10 uM after 48 hrs by SRB assay; format: functional; conditions: NCI-H522, 48 h, read-out: GI
MDA-MB-435 = test: Cytotoxicity against human MDA-MB-435 cells assessed as growth level at 10 uM after 48 hrs by SRB assay; format: functional
MCF7 [23] = test: Cytotoxicity against human MCF7 cells assessed as growth level at 10 uM after 48 hrs by SRB assay; format: functional
[24] = Cytotoxicity against human Hs578T cells after 48 hrs by SRB assay; format: functional; conditions: Hs-578T
[25] = Cytotoxicity against human HCT116 cells after 48 hrs by SRB assay; format: functional; conditions: HCT-116, 48 h
SR = test: Cytotoxicity against human SR cells after 48 hrs by SRB assay; format: functional
[26] = Cytotoxicity against human UACC257 cells after 48 hrs by SRB assay; format: functional; conditions: UACC-257, 48 h
K562 [27] = test: Cytotoxicity against human K562 cells after 48 hrs by SRB assay; format: functional; conditions: K562, 48 h
CCRF-CEM = test: Cytotoxicity against human CCRF-CEM cells after 48 hrs by SRB assay; format: functional
SK-MEL-5 = test: Cytotoxicity against human SK-MEL-5 cells after 48 hrs by SRB assay; format: functional; conditions: SK-MEL-5, 48 h
A498 = test: Cytotoxicity against human A498 cells after 48 hrs by SRB assay; format: functional; conditions: A498, 48 h
ACHN = test: Cytotoxicity against human ACHN cells after 48 hrs by SRB assay; format: functional
[28] = Cytotoxicity against human UACC62 cells after 48 hrs by SRB assay; format: functional; conditions: UACC-62, 48 h
NCI-H322M = test: Cytotoxicity against human NCI-H322M cells after 48 hrs by SRB assay; format: functional
[29] = read-out: LC50 (the source's name)

**Q.** What does the source list for C=C1CC[C@@H]2[C@](C)(COC(C)=O)[C@H](OC(C)=O)CC[C@@]2(C)[C@@H]1CC(NCCCCCCCC)C1=CCOC1=O (mixture of isomers)?
**A.** inhibition of growth at 10 µM (KM12): 31.4%; Activity [1]: 48.95%; Activity [2]: 77.13%; inhibition of growth at 10 µM (MCF7 [3]): 31.2%; Activity [4]: 35.98%; Activity [5]: 93.23%; inhibition of growth at 10 µM [6]: 17.3%; inhibition of growth at 10 µM (786-0): 20.1%; Activity [7]: 66.95%; inhibition of growth at 10 µM [8]: 64.1%; Activity [9]: 61.1%; inhibition of growth at 10 µM [10]: 52.3%; Activity [11]: 89.25%; Activity [12]: 70.18%; Activity (K562 [13]): 34.66%; Activity (NCI-H460): 52.67%; inhibition of growth at 10 µM (M14): 24.1%; Activity (NCI-H522 [14]): 64.41%; inhibition of growth at 10 µM [15]: 46.1%; inhibition of growth at 10 µM [16]: 30.4%; inhibition of growth at 10 µM [17]: 29.8%; inhibition of growth at 10 µM (NCI-H226): 34.2%; inhibition of growth at 10 µM [18]: 6.77%; Activity [19]: 85.68%; Activity [20]: 67.83%; Activity [21]: 82.68%; inhibition of growth at 10 µM (NCI-H522 [22]): 35.6%; Activity (MDA-MB-435): 77.59%; Activity (MCF7 [23]): 68.8%

**Q.** With C=C1CC[C@@H]2[C@](C)(COC(C)=O)[C@H](OC(C)=O)CC[C@@]2(C)[C@@H]1CC(Nc1ccc(S(=O)(=O)NC(C)=O)cc1)C1=CCOC1=O (mixture of isomers) as the compound, how does the GI50 [24] read?
**A.** The GI50 was 8.45 µM.

**Q.** And the LC50 (concentration killing 50% of cells) [24]?
**A.** Its LC50 (concentration killing 50% of cells) is over 75 µM.

**Q.** What about the TGI [24] of the same compound?
**A.** Its TGI is 38.8 µM.

**Q.** What about the Activity [1] of the same compound?
**A.** Its Activity is -87.71%.

**Q.** And the Activity [2]?
**A.** Its Activity is 67.34%.

**Q.** What about the GI50 [25] of the same compound?
**A.** The GI50 was 1670 nM.

**Q.** What about the LC50 (concentration killing 50% of cells) [25] of the same compound?
**A.** The LC50 (concentration killing 50% of cells) was 12.3 µM.

**Q.** What about the TGI [25] of the same compound?
**A.** The TGI was 3.66 µM.

**Q.** And the Activity [4]?
**A.** Its Activity is -16.18%.

**Q.** What about the GI50 (SR) of the same compound?
**A.** The GI50 was 990 nM.

**Q.** What about the TGI (SR) of the same compound?
**A.** The TGI was 18.1 µM.

**Q.** What about the CC50 (SR; [29]) of the same compound?
**A.** Its CC50 is over 75 µM.

**Q.** What about the Activity [5] of the same compound?
**A.** Its Activity is -40.14%.

**Q.** And the Activity [7]?
**A.** Its Activity is -49.53%.

**Q.** And the Activity [9]?
**A.** The Activity was -10.57%.

**Q.** What about the Activity [11] of the same compound?
**A.** The Activity was -76.71%.

**Q.** What about the Activity [12] of the same compound?
**A.** Its Activity is -10.04%.

**Q.** And the GI50 [26]?
**A.** Its GI50 is 6.83 µM.

**Q.** What about the LC50 (concentration killing 50% of cells) [26] of the same compound?
**A.** Its LC50 (concentration killing 50% of cells) is 35.6 µM.

**Q.** And the TGI [26]?
**A.** The TGI was 16 µM.

**Q.** And the Activity (K562 [13])?
**A.** Its Activity is 4.81%.

**Q.** What about the Activity (NCI-H460) of the same compound?
**A.** Its Activity is 5.29%.

**Q.** What about the Activity (NCI-H522 [14]) of the same compound?
**A.** The Activity was -63.21%.

**Q.** And the GI50 (K562 [27])?
**A.** Its GI50 is 2580 nM.

**Q.** And the LC50 (50% lethal concentration) (K562 [27])?
**A.** The LC50 (50% lethal concentration) was over 75 µM.

**Q.** What about the TGI (K562 [27]) of the same compound?
**A.** Its TGI is 17.6 µM.

**Q.** And the GI50 (CCRF-CEM)?
**A.** Its GI50 is 1930 nM.

**Q.** What about the TGI (CCRF-CEM) of the same compound?
**A.** The TGI was 6.26 µM.

**Q.** What about the CC50 (CCRF-CEM; [29]) of the same compound?
**A.** The CC50 was over 75 µM.

**Q.** And the GI50 (SK-MEL-5)?
**A.** The GI50 was 3.22 µM.

**Q.** And the LC50 (concentration killing 50% of cells) (SK-MEL-5)?
**A.** The LC50 (concentration killing 50% of cells) was 30.7 µM.

**Q.** And the TGI (SK-MEL-5)?
**A.** Its TGI is 11.5 µM.

**Q.** What about the GI50 (A498) of the same compound?
**A.** The GI50 was 10.3 µM.

**Q.** What about the TGI (A498) of the same compound?
**A.** Its TGI is 20.1 µM.

**Q.** And the CC50 (A498; [29])?
**A.** The CC50 was 39.3 µM.

**Q.** What about the Activity [19] of the same compound?
**A.** The Activity was -75.81%.

**Q.** And the Activity [20]?
**A.** Its Activity is 6.72%.

**Q.** What about the Activity [21] of the same compound?
**A.** The Activity was 2.78%.

**Q.** What about the Activity (MDA-MB-435) of the same compound?
**A.** Its Activity is -38.84%.

**Q.** And the GI50 (ACHN)?
**A.** Its GI50 is 7.54 µM.

**Q.** And the LC50 (ACHN)?
**A.** The LC50 was 36.3 µM.

**Q.** And the TGI (ACHN)?
**A.** The TGI was 16.5 µM.

**Q.** What about the GI50 [28] of the same compound?
**A.** Its GI50 is 2590 nM.

**Q.** And the LC50 [28]?
**A.** Its LC50 is 32 µM.

**Q.** And the TGI [28]?
**A.** The TGI was 10.8 µM.

**Q.** And the GI50 (NCI-H322M)?
**A.** Its GI50 is 10.3 µM.

**Q.** What about the LC50 (NCI-H322M) of the same compound?
**A.** The LC50 was 40.1 µM.

**Q.** And the TGI (NCI-H322M)?
**A.** The TGI was 20.3 µM.

**Q.** And the Activity (MCF7 [23])?
**A.** The Activity was -33.6%.
